Like-named read-outs stand apart in the source and are kept apart here.
Legend:
[1] = in aquatic organisms; cited from earlier work
[2] = in human blood; cited from earlier work
[3] = system: Lactococcus garvieae ATCC2155; assay: Broth microdilution MIC assay; assay type: cell-based; settings: L. garvieae (+); LB broth, 37° C
Excerpt: (§1) The following microorganisms were used (American Type Culture Collection (ATCC), Manassas, Vir., or La Colección Española de Cultivos Tipo (CECT), Valencia, Spain): Gram-positive bacteria Staphylococcus aureus ATCC 25923 and ATCC 6538, Staphylococcus epidermidis CECT 4184, Lactococcus lactis ATCC 7963, Streptococcus phocae ATCC51973, Lactococcus garvieae ATCC2155, Gram-negative bacteria Pseudomonas aeruginosa CECT 110 and ATCC 15692, Escherichia coli ATCC 11229, and Salmonella enterica ATCC 13311. The bacteria were grown at 37° C. in Luria-Bertani (LB) broth (Sigma-Aldrich Chemical Co.) (pH 7.3), which was also used for dilutions. The […] inhibitory concentration (MIC) values of PHMBG and the particles were determined in vitro using a broth microdilution assay. The polymer or nanoparticles were dissolved or dispersed, respectively, with brief sonication; into small stock samples of sterile deionized water (10 mL, 3 mg/mL). Serial dilutions between 5 and 300 mg/L final concentration in the liquid medium were dispensed into sterile 96-well polystyrene culture Corning® Costar® cell plates (Sigma-Aldrich Chemical Co.). The diluted samples were inoculated with a suspension of the test bacterium on the liquid medium to a final concentration of approximately 10^4 cfu/mL. The MIC was defined as the lowest concentration of PHMBG polymer, PHMBG-PEI-M or PHMBG-M/SiO2 particles that inhibited bacterial growth after […] at 37° C. Measurements were conducted in triplicate. The precision of the MIC values was limited by the dilution factor and was estimated to be ±5 mg/L, Negative control experiments were conducted with the dilutions without bactericidal additives and no reduction in bacterial counts after 24 h was observed.
(§2) For testing the antiseptic properties of the core-shell magnetic nanoparticles of the invention, five Gram-positive and three Gram-negative bacteria were chosen to represent a wide range of waterborne microorganisms, all of which are pathogenic with the exception of L. lactis, which is extensively used in buttermilk and cheese production. Gram-positive S. aureus and S. epidermidis are well-known human pathogens; S. phocae is a fish and seal pathogen; and L. garvieae causes septicemic infections of fish and is the main risk factor for the Mediterranean European trout industry. […] Both PHMBG-M/SiO2 (t) and PHMBG-M/SiO2 (s) particle species were tested, as well as PHMBG solutions and PHMBG-PEI-M particle suspensions.

[4] = system: Salmonella enterica ATCC 13311; assay: Broth microdilution MIC assay; assay type: cell-based; settings: S. enterica (−); LB broth, 37° C
Excerpt: as §1, §2

[5] = system: Lactococcus lactis ATCC 7963; assay: Broth microdilution MIC assay; assay type: cell-based; settings: L. lactis (+); LB broth, 37° C
Excerpt: as §1, §2

Pseudomonas aeruginosa = assay: Broth microdilution MIC assay; assay type: cell-based; settings: P. aeruginosa (−); LB broth, 37° C
Excerpt: as §1, §2

[6] = system: Escherichia coli ATCC 11229; assay: Broth microdilution MIC assay; assay type: cell-based; settings: E. coli (−); LB broth, 37° C
Excerpt: as §1, §2

[7] = system: Staphylococcus epidermidis CECT 4184; assay: Broth microdilution MIC assay; assay type: cell-based; settings: S. epidermidis (+); LB broth, 37° C
Excerpt: as §1, §2

[8] = system: Streptococcus phocae ATCC51973; assay: Broth microdilution MIC assay; assay type: cell-based; settings: S. phocae (+); LB broth, 37° C
Excerpt: as §1, §2

Staphylococcus aureus = assay: Broth microdilution MIC assay; assay type: cell-based; settings: S. aureus (+); LB broth, 37° C
Excerpt: as §1, §2

Compound | half-life [1] | half-life [2] | Minimum inhibitory concentrations (MIC) [3] | Minimum inhibitory concentrations (MIC) [4] | Minimum inhibitory concentrations (MIC) [5] | Minimum inhibitory concentrations (MIC) (Pseudomonas aeruginosa) | Minimum inhibitory concentrations (MIC) [6] | Minimum inhibitory concentrations (MIC) [7] | Minimum inhibitory concentrations (MIC) [8] | Minimum inhibitory concentrations (MIC) (Staphylococcus aureus)
[CH3][Hg][Cl] [methylmercury] | about 72 days | about 50 days |  |  |  |  |  |  |  | 
Poly(hexamethylene biguanide) [PHMBG] |  |  | 40 µg/mL | 110 µg/mL | 20 µg/mL | 30 µg/mL | 5 µg/mL | 0.5 µg/mL | 1.6 µg/mL | 5 µg/mL

— US8992985B2, “Core-shell magnetic particles and related methods” (priority 2010, dated 2015)
